In EP1388586A2, “Identification of broadly reactive DR restricted epitopes” (priority 1998, dated 1999):
pIC50: −log10 of the molar value. Read-outs that look alike come from different tables or passages of the source. Square brackets hold non-standard residues; d marks the D form. Ends that are not written are not given here. Peptide text beside a SMILES is read from it.

Assays:
DRB1*0101 (DR1) = biological target: T1, DRB1*0101 (DR1) (Homo sapiens, UniProt P01903+P01911, A100R/D57E/F55L/F60I/F76Y/I96L/L162R/M171V/P40L/Q125E/R42F/V115G/Y59C); assay: Class II peptide-binding assay, DR1;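 note: competition assay: unlabeled test peptides inhibit binding of a radiolabeled probe peptide to purified DR, with half-maximal inhibition taken as an approximate dissociation constant Kd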
T1 construct: used as sources of human HLA class II molecules; endogenous in cells; host or cells: LG2 (EBV-transformed homozygous B cell line)
Description: (§1) Class II peptide-binding assays. […] These assays were chosen as to be representative of the most common DR alleles.
Radiolabeled peptides were iodinated using the chloramine-T method. […] In appropriate stoichiometric conditions, the IC50 of an unlabeled test peptide to the purified DR is a reasonable approximation of the affinity of interaction (Kd). Peptides were tested in two to four completely independent experiments. […] Final detergent concentration in the incubation mixture was 0.05% Nonidet P-40. Assays were performed at pH 7.0 with the exception of DR3, which was performed at pH 4.5, and DRw53, which was performed at pH 5.0.
(§2) All subsequent inhibition and direct binding assays were the performed using these class II concentrations.

DRB5*0101 (DR2w2a) = biological target: T2, DRB5*0101 (DR2w2a) (Homo sapiens, UniProt P01903+Q30154); assay: Class II peptide-binding assay, DR2w2a (DR2w2B2);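 note: competitive binding assay: unlabeled peptide inhibiting binding of a radiolabeled probe peptide to purified DR molecules at pH 7.0, IC50 approximating Kd, lower means stronger binding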
T2 construct: used as sources of human HLA class II molecules; endogenous in cells; host or cells: GM3107 (EBV-transformed homozygous B cell line)

DRB1*0401 (DR4w4) = biological target: T3, DRB1*0401 (DR4w4) (Homo sapiens, UniProt P01903+P01911, A100K/A169T/F76Y/I96L/K127E/L162R/M171V/N62H/P40V/Q125Y/R42H/S133A/S149N/S66Y/V115G/V209L/W38E); assay: Class II peptide-binding assay, DR4w4;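 note: unlabeled test peptides compete with a radiolabeled probe peptide for binding to affinity-purified HLA-DR, with DR amount titrated to capture a small fraction of label, IC50 approximating Kd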
T3 construct: used as sources of human HLA class II molecules; endogenous in cells; host or cells: PREISS (EBV-transformed homozygous B cell line)

DRB10404 (DR4w14) = biological target: T4, DRB10404 (DR4w14) (Homo sapiens, UniProt P01903+P01911, A100R/A169T/F76Y/I96L/K127E/L162R/M171V/N62H/P40V/Q125Y/R42H/S133A/S149N/S66Y/V209L/W38E); assay: Class II peptide-binding assay, DR4w14;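 note: unlabeled peptides compete with a radiolabeled probe for binding to affinity-purified HLA-DR, neutral pH, class II amount titrated to bind a small fraction of label, IC50 approximates Kd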
T4 construct: used as sources of human HLA class II molecules; endogenous in cells; host or cells: BIN40 (EBV-transformed homozygous B cell line)
Description: as §1
In appropriate stoichiometric conditions, the IC50 of an unlabeled test peptide to the purified DR is a reasonable approximation of the affinity of interaction (Kd). Peptides were tested in two to four completely independent experiments. […] Final detergent concentration in the incubation mixture was 0.05% Nonidet P-40. Assays were performed at pH 7.0 with the exception of DR3, which was performed at pH 4.5, and DRw53, which was performed at pH 5.0.
as §2

DRB1*1101 (DR5w11) = biological target: T5, DRB1*1101 (DR5w11) (Homo sapiens, UniProt P01903+P01911, A100R/A169T/A87E/I96F/K41T/L162R/M171V/P40S/Q125H/Q178H/Q39Y/Q99D/R42S/S66Y/T262R/V115G/W38E); assay: Class II peptide-binding assay, DR5w11;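 note: competition by unlabeled test peptide against iodinated probe peptide binding to affinity-purified HLA-DR, class II amount titrated beforehand, half-maximal inhibitory concentration read as approximate Kd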
T5 construct: used as sources of human HLA class II molecules; endogenous in cells; host or cells: SWEIG (EBV-transformed homozygous B cell line)

DRB1*0701 (DR7) = DRB1*0701 (DR7) (Homo sapiens, UniProt P01903+P01911, A100R/A102G/A103Q/D57E/D86V/E43K/F76Y/K127E/L162R/M171V/P40G/Q125H/Q99D/R33Q/R42Y/R54Q/S133A/S66F/T210M/V115G/Y107V/Y59L/Y89S); assay: Class II peptide-binding assay, DR7;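 note: unlabeled peptides compete with an iodinated probe peptide for binding to affinity-purified HLA-DR at neutral pH, DR amount titered to bind a small tracer fraction, IC50 approximating Kd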
[1] = read-out: DR1 nM, Table VIII, In IC50 Format
[2] = read-out: DR2w2B2 nM, Table VIII, In IC50 Format
[3] = read-out: DR4w4 nM, Table VIII, In IC50 Format
[4] = read-out: DR4w14 nM, Table VIII, In IC50 Format
[5] = read-out: DR5w11 nM, Table VIII, In IC50 Format
[6] = read-out: DR7 nM, Table VIII, In IC50 Format
[7] = read-out: DR1 nM (In IC50 Format), purified HLA DR1
[8] = read-out: DR2w2B2 nM (In IC50 Format), purified HLA DR2w2β2
[9] = read-out: DR4w4 nM (In IC50 Format), purified HLA DR4w4
[10] = read-out: DR4w14 nM (In IC50 Format), purified HLA DR4w14
[11] = read-out: DR5w11 nM (In IC50 Format), purified HLA DR5w11
[12] = read-out: DR7 nM (In IC50 Format), purified HLA DR7

T5 sequence (P01903 26-254, other chains not shown): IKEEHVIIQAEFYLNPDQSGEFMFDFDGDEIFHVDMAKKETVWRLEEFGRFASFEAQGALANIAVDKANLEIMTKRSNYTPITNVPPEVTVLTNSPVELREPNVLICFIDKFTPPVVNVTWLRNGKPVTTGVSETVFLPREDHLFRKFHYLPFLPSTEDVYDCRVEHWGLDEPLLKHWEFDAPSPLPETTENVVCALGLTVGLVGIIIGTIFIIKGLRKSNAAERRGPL

Row | Compound | pIC50 (DRB1*0101 (DR1); [1]) | pIC50 (DRB5*0101 (DR2w2a); [2]) | pIC50 (DRB1*0401 (DR4w4); [3]) | pIC50 (DRB10404 (DR4w14); [4]) | pIC50 (DRB1*1101 (DR5w11); [5]) | pIC50 (DRB1*0701 (DR7); [6]) | pIC50 (DRB1*0101 (DR1); [7]) | pIC50 (DRB5*0101 (DR2w2a); [8]) | pIC50 (DRB1*0401 (DR4w4); [9]) | pIC50 (DRB10404 (DR4w14); [10]) | pIC50 (DRB1*1101 (DR5w11); [11]) | pIC50 (DRB1*0701 (DR7); [12])
1 | C[C@H](NC(=O)[C@H](N)Cc1ccc(O)cc1)C(=O)N[C@@H](C)C(=O)N[C@@H](Cc1ccccc1)C(=O)N[C@@H](C)C(=O)N[C@@H](C)C(=O)N[C@@H](C)C(=O)N[C@@H](C)C(=O)N[C@H](C(=O)N[C@@H](CCCCN)C(=O)N[C@@H](C)C(=O)N[C@@H](C)C(=O)N[C@@H](C)C(=O)N[C@H](C)C(N)=O)[C@@H](C)O [Peptide 828.10] (H-[dY]AAFAAAATKAAA[dA]-NH2) | 8.72 | 7.70 | 8.47 | 6.95 | 7.65 | 5.90 | – | – | – | – | – | –
2 | C[C@H](NC(=O)[C@H](C)NC(=O)[C@H](C)NC(=O)[C@H](Cc1ccc(O)cc1)NC(=O)[C@H](C)NC(=O)[C@@H](C)N)C(=O)N[C@@H](C)C(=O)N[C@H](C(=O)N[C@@H](C)C(=O)N[C@@H](CCCCN)C(=O)N[C@@H](C)C(=O)N[C@@H](C)C(=O)N[C@H](C)C(N)=O)[C@@H](C)O [Peptide 762.02] (H-[dA]AYAAAATAKAA[dA]-NH2) | – | – | – | – | – | – | 8.77 | 6.98 | 8.70 | 5.85 | 7.59 | 6.16
3 | YARFQSQTSLKAKT-NH2 [Peptide 717.31] | – | – | – | – | – | – | 8.35 | 6.84 | 8.29 | 7.97 | 7.70 | 6.17
4 | CC[C@H](C)[C@H](NC(=O)[C@H](C)NC(=O)CNC(=O)[C@H](Cc1ccccc1)NC(=O)[C@H](CC(N)=O)NC(=O)[C@H](CC(N)=O)NC(=O)[C@H](N)CO)C(=O)N[C@@H](CC(C)C)C(=O)N[C@@H](CO)C(=O)N[C@@H](CO)C(=O)N[C@H](C(=O)N[C@@H](CC(N)=O)C(=O)N[C@H](C(=O)NCC(N)=O)C(C)C)[C@@H](C)O [Peptide 735.05] (H-[dS]NNFGAILSSTNVG-NH2) | – | – | – | – | – | – | 7.31 | 5.54 | 6.56 | 6.42 | 4.70 | 4.90
5 | YARFQSQTTLAAKT-NH2 [Peptide 717.50] | – | – | – | – | – | – | 8.38 | 6.56 | 8.51 | 8.37 | 7.68 | 5.38
6 | C[C@H](NC(=O)[C@H](N)Cc1ccc(O)cc1)C(=O)N[C@@H](C)C(=O)N[C@@H](Cc1ccccc1)C(=O)N[C@@H](C)C(=O)N[C@@H](C)C(=O)N[C@@H](C)C(=O)N[C@@H](C)C(=O)N1CCC[C@H]1C(=O)N[C@@H](CCCCN)C(=O)N[C@@H](C)C(=O)N[C@@H](C)C(=O)N[C@@H](C)C(=O)N[C@H](C)C(N)=O [Peptide 828.06] (H-[dY]AAFAAAAPKAAA[dA]-NH2) | 8.70 | 7.72 | 6.67 | 5.00 | 6.63 | 5.72 | – | – | – | – | – | –
7 | YARFQSQTTAKAKT-NH2 [Peptide 717.51] | – | – | – | – | – | – | 8.48 | 7.18 | 8.21 | 7.88 | 7.41 | 5.20
8 | YARFQSQATLKAKT-NH2 [Peptide 717.53] | – | – | – | – | – | – | 8.70 | 6.78 | 8.04 | 7.97 | 7.70 | 5.45
9 | YARFQSQSTLKAKT-NH2 [Peptide 717.16] | – | – | – | – | – | – | 8.22 | 6.98 | 8.74 | 8.09 | 8.40 | 5.45
10 | YARFQSQTTKKAKT-NH2 [Peptide 717.20] | – | – | – | – | – | – | 7.95 | 7.06 | 7.90 | 6.70 | 6.47 | 5.30
11 | YERFQSQTTLKAKT-NH2 [Peptide 717.39] | – | – | – | – | – | – | 7.73 | 6.10 | 7.97 | 7.78 | 7.32 | 5.08
12 | YAEFQSQTTLKAKT-NH2 [Peptide 717.41] | – | – | – | – | – | – | 7.62 | 6.18 | 7.49 | 7.18 | 7.41 | 4.60
13 | YARFQSQTALKAKT-NH2 [Peptide 717.52] | – | – | – | – | – | – | 8.66 | 7.81 | 8.34 | 7.50 | 7.48 | 5.94
14 | CPIAIMSALAMVYLGAKDS [Peptide 705.04] | – | – | – | – | – | – | 7.27 | 6.39 | 6.05 | 5.94 | 5.18 | 5.96
15 | YARFQSATTLKAKT-NH2 [Peptide 717.54] | – | – | – | – | – | – | 8.34 | 7.22 | 8.39 | 8.14 | 8.02 | 6.17
16 | YARAQSQTTLKAKT-NH2 [Peptide 717.29] | – | – | – | – | – | – | 6.26 | 5.74 | 7.52 | 7.38 | 4.70 | 5.45
17 | YARFQSQETLKAKT-NH2 [Peptide 717.17] | – | – | – | – | – | – | 8.22 | 6.06 | 8.28 | 7.60 | 7.74 | 5.72
18 | YARFQSQTTIKAKT-NH2 [Peptide 717.19] | – | – | – | – | – | – | 8.24 | 6.84 | 8.49 | 7.72 | 7.52 | 5.68
19 | INSWVESQTNGIIRNVLQPS [Peptide 732.01] | – | – | – | – | – | – | 6.41 | 5.88 | 6.78 | 6.57 | 5.18 | 6.57
20 | YARFQAQTTLKAKT-NH2 [Peptide 717.55] | – | – | – | – | – | – | 8.62 | 7.04 | 8.35 | 8.37 | 7.95 | 5.30
21 | YARFNSQTTLKAKT-NH2 [Peptide 717.44] | – | – | – | – | – | – | 8.30 | 7.10 | 8.38 | 8.13 | 7.48 | 5.30
22 | EALVRQGLAKVAYVYKPNN [NASE 101-] | 8.66 | 6.81 | 6.01 | 5.94 | 7.00 | 6.34 | – | – | – | – | – | –
